Reference: PubChem BioAssay (NCI)
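Where inhibition never reached the appropriate level, the endpoint shown equals the highest concentration tested. Otherwise, values were interpolated linearly from a five-concentration, 48-hour dose response in 96-well plates. TGI is the concentration that stops growth completely.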

Tests used:
Assay in all cases: DTP human tumour cell line panel, 48 h
SK-MEL-2 melanoma = test system: SK-MEL-2 melanoma
CCRF-CEM leukemia = test system: CCRF-CEM leukemia
MOLT-4 leukemia = test system: MOLT-4 leukemia
EKVX NSCLC = test system: EKVX NSCLC
RPMI-8226 leukemia = test system: RPMI-8226 leukemia
TK-10 renal = test system: TK-10 renal
786-0 renal = test system: 786-0 renal
KM12 colon = test system: KM12 colon
DU-145 prostate = test system: DU-145 prostate
OVCAR-5 ovarian = test system: OVCAR-5 ovarian
LOX IMVI melanoma = test system: LOX IMVI melanoma
CAKI-1 renal = test system: CAKI-1 renal
ACHN renal = test system: ACHN renal
SN12C renal = test system: SN12C renal
NCI-H460 lung = test system: NCI-H460 lung

## COc1cc(OCCN(C)C)c2[nH]c(C(=O)N3CC(CCl)c4ccc(N)cc43)cc2c1 (configuration not stated)
SK-MEL-2 melanoma
  TGI: 0.0933 µM
CCRF-CEM leukemia
  TGI: 0.0684 µM
MOLT-4 leukemia
  TGI: 0.0522 µM
EKVX NSCLC
  TGI: 1.37 µM
RPMI-8226 leukemia
  TGI: 0.271 µM
TK-10 renal
  TGI: 1.09 µM
786-0 renal
  TGI: 1.47 µM
KM12 colon
  TGI: 0.126 µM
DU-145 prostate
  TGI: 1.02 µM
OVCAR-5 ovarian
  TGI: 5.63 µM

## CCNC(=O)c1ccc(C)c(N=NN(C)C)c1
SK-MEL-2 melanoma
  TGI: > 100 µM
LOX IMVI melanoma
  TGI: > 100 µM
EKVX NSCLC
  TGI: > 100 µM
TK-10 renal
  TGI: > 100 µM
786-0 renal
  TGI: > 100 µM
CAKI-1 renal
  TGI: > 100 µM
ACHN renal
  TGI: > 100 µM
KM12 colon
  TGI: > 100 µM
SN12C renal
  TGI: > 100 µM
NCI-H460 lung
  TGI: > 100 µM

## O=C(Nc1c(O)[nH]c(=S)[nH]c1=O)c1ccccc1
SK-MEL-2 melanoma
  TGI: > 100 µM
CCRF-CEM leukemia
  TGI: > 100 µM
MOLT-4 leukemia
  TGI: > 100 µM
LOX IMVI melanoma
  TGI: > 100 µM
RPMI-8226 leukemia
  TGI: > 100 µM
TK-10 renal
  TGI: > 100 µM
786-0 renal
  TGI: > 100 µM
CAKI-1 renal
  TGI: > 100 µM
ACHN renal
  TGI: > 100 µM
KM12 colon
  TGI: > 100 µM
OVCAR-5 ovarian
  TGI: > 100 µM
SN12C renal
  TGI: > 100 µM
NCI-H460 lung
  TGI: > 100 µM

## S=P1(Oc2ccccc2)NNP2(=NP(N3CC3)(N3CC3)=NP(N3CC3)(N3CC3)=N2)NN1 (configuration not stated)
SK-MEL-2 melanoma
  TGI: > 100 µM
CCRF-CEM leukemia
  TGI: > 100 µM
MOLT-4 leukemia
  TGI: > 100 µM
LOX IMVI melanoma
  TGI: > 100 µM
EKVX NSCLC
  TGI: > 100 µM
RPMI-8226 leukemia
  TGI: > 100 µM
TK-10 renal
  TGI: > 100 µM
786-0 renal
  TGI: > 100 µM
CAKI-1 renal
  TGI: > 100 µM
ACHN renal
  TGI: > 100 µM
KM12 colon
  TGI: > 100 µM
OVCAR-5 ovarian
  TGI: > 100 µM
SN12C renal
  TGI: > 100 µM
NCI-H460 lung
  TGI: > 100 µM

## Cc1ccc(C(=O)OC(C(=O)O)C(OC(=O)c2ccc(C)cc2)C(=O)O)cc1 (configuration not stated) (tested in a mixture with another compound)
SK-MEL-2 melanoma
  TGI: 23.5 µM
CCRF-CEM leukemia
  TGI: 17 µM
MOLT-4 leukemia
  TGI: 14.3 µM
LOX IMVI melanoma
  TGI: 20.6 µM
EKVX NSCLC
  TGI: 26.6 µM
RPMI-8226 leukemia
  TGI: 9.23 µM
CAKI-1 renal
  TGI: 21.2 µM
KM12 colon
  TGI: 19 µM
OVCAR-5 ovarian
  TGI: 24.6 µM
SN12C renal
  TGI: 32 µM
NCI-H460 lung
  TGI: 10.3 µM

## C/C(CN1C(=O)c2ccccc2C1=O)=N\NS(=O)(=O)c1ccc(Cl)cc1
SK-MEL-2 melanoma
  TGI: > 100 µM
CCRF-CEM leukemia
  TGI: > 100 µM
MOLT-4 leukemia
  TGI: > 100 µM
EKVX NSCLC
  TGI: > 100 µM
RPMI-8226 leukemia
  TGI: > 100 µM
TK-10 renal
  TGI: > 100 µM
786-0 renal
  TGI: > 100 µM
CAKI-1 renal
  TGI: > 100 µM
ACHN renal
  TGI: > 100 µM
KM12 colon
  TGI: > 100 µM
OVCAR-5 ovarian
  TGI: > 100 µM
SN12C renal
  TGI: > 100 µM
NCI-H460 lung
  TGI: > 100 µM

## CCn1cnc2c(=S)nc(N)[nH]c21
CCRF-CEM leukemia
  TGI: > 100 µM
MOLT-4 leukemia
  TGI: > 100 µM
LOX IMVI melanoma
  TGI: > 100 µM
EKVX NSCLC
  TGI: > 100 µM
RPMI-8226 leukemia
  TGI: > 100 µM
TK-10 renal
  TGI: > 100 µM
786-0 renal
  TGI: > 100 µM
ACHN renal
  TGI: > 100 µM
KM12 colon
  TGI: > 100 µM
SN12C renal
  TGI: > 100 µM
NCI-H460 lung
  TGI: > 100 µM
